Experimental data: ChEMBL document CHEMBL1909046, “DrugMatrix in vitro pharmacology data”

How the values were obtained:
[1] = DRUGMATRIX: Sigma2 radioligand binding (ligand: [3H] Ifenprodil); assay type: cell membranes, Rattus norvegicus, Wistar, Brain, Membrane; details: Not Active = under 50% inhibition at 10 µM
[2] = target: Beta-1 adrenergic receptor (Homo sapiens, UniProt P08588); test: DRUGMATRIX: Adrenergic beta1 radioligand binding (ligand: [125I] Cyanopindolol); assay type: cell membranes, CHO-K1, Membrane; details: cho-k1; Not Active = under 50% inhibition at 10 µM
Beta-1 adrenergic receptor, sequence (P08588 whole entry): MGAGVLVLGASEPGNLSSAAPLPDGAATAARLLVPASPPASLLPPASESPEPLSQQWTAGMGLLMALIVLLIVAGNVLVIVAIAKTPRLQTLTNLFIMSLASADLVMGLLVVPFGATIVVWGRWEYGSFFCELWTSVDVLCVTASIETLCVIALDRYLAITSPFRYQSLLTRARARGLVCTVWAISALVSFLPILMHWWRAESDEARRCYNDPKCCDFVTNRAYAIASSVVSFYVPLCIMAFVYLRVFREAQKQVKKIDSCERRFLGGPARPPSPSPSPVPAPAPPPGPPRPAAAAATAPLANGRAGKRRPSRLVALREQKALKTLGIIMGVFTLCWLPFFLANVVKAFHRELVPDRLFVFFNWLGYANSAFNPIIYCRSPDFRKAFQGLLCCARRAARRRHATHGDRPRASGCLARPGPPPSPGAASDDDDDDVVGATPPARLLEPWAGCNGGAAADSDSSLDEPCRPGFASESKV

Cytochrome P450 2C19 = Cytochrome P450 2C19 (Homo sapiens, UniProt P33261); details: bti-tn-5b1-4; also: in other assays of this panel Not Active means under 50% inhibition at 10 µM
Cytochrome P450 2C19, sequence (P33261 whole entry): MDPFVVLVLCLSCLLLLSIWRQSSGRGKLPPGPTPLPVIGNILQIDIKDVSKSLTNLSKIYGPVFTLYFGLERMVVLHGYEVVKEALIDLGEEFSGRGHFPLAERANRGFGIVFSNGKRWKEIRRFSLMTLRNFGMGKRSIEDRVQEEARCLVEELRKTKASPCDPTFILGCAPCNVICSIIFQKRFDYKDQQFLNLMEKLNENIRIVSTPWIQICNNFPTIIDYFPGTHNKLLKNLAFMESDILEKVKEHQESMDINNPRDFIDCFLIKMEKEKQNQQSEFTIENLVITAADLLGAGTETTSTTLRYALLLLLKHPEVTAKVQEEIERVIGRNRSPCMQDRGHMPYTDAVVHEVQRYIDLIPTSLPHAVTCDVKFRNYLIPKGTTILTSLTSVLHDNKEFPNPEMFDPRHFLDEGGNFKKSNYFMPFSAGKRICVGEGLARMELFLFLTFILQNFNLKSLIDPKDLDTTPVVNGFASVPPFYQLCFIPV

[3] = target: Beta-3 adrenergic receptor (Homo sapiens, UniProt P13945); test: DRUGMATRIX: Adrenergic beta3 radioligand binding (ligand: [125I] Cyanopindolol); assay type: cell membranes, HEK293, Membrane; details: hek293; Not Active = under 50% inhibition at 10 µM
Beta-3 adrenergic receptor, sequence (P13945 whole entry): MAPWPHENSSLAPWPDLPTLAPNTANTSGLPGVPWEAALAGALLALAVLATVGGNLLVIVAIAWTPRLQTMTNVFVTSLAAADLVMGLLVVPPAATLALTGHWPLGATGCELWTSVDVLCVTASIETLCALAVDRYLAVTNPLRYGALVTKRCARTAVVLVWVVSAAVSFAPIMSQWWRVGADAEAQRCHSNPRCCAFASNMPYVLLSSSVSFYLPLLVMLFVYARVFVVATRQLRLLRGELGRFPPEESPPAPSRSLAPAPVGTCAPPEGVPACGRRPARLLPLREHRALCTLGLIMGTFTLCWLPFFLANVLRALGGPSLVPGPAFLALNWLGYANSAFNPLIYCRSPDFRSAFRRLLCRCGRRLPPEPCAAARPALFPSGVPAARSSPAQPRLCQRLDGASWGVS

Progesterone receptor = target: T1, Progesterone receptor (Bos taurus, UniProt Q690N0); test: DRUGMATRIX: Progesterone radioligand binding (ligand: [3H] R-5020); assay type: tissue-based, Uterus; details: Not Active = under 50% inhibition at 10 µM
T1 sequence (Q690N0 whole entry): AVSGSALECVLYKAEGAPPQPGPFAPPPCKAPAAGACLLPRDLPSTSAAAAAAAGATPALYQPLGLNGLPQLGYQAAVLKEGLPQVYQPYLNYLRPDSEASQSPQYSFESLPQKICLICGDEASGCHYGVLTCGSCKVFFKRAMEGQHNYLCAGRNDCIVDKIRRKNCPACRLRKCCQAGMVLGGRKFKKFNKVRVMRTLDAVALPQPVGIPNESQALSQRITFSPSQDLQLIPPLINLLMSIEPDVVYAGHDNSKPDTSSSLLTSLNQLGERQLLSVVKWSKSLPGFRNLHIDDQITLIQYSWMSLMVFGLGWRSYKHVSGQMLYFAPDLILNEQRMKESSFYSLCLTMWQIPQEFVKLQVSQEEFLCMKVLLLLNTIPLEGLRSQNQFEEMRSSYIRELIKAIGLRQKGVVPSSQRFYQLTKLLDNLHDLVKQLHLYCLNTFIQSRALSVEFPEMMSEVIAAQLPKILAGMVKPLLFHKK

Melanocortin receptor 5 = Melanocortin receptor 5 (Homo sapiens, UniProt P33032); assay type: cell membranes, HEK293, Membrane; details: hek293; also: in other assays of this panel Not Active means under 50% inhibition at 10 µM
Melanocortin receptor 5, sequence (P33032 whole entry): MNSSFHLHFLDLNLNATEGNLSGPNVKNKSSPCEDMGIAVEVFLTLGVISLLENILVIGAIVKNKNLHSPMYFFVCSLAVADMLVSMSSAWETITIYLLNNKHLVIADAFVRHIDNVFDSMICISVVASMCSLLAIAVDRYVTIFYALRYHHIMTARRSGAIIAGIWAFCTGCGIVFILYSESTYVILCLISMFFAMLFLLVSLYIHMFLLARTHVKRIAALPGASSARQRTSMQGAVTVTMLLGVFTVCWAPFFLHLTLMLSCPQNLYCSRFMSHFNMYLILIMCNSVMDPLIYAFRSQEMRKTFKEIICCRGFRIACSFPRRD

| Compound | IC50 [1] | Ki [1] | IC50 [2] | IC50 (Cytochrome P450 2C19) | Ki (Cytochrome P450 2C19) | IC50 [3] | IC50 (Progesterone receptor) | IC50 (Melanocortin receptor 5) | IC50 (Progesterone receptor; read-out: IC50) [nM] | Ki (Progesterone receptor; read-out: Ki) [nM] |
| --- | --- | --- | --- | --- | --- | --- | --- | --- | --- | --- |
| Cl.NC[C@H]1CC[C@H](C(=O)Oc2ccc(CCC(=O)O)cc2)CC1 [CETRAXATE HYDROCHLORIDE] | Not Active | Not Active | Not Active | Not Active | Not Active | Not Active | Not Active | Not Active | – | – |
| COc1cc(/C=C/C(=O)O)ccc1O [FERULATE] | Not Active | Not Active | Not Active | Not Active | Not Active | Not Active | Not Active | Not Active | – | – |
| O=C(O)CCc1nc(-c2ccccc2)c(-c2ccccc2)o1 [OXAPROZIN] | Not Active | Not Active | Not Active | Not Active | Not Active | Not Active | Not Active | Not Active | – | – |
| c1ccc(Cn2ccnc2)cc1 | Not Active | Not Active | Not Active | Not Active | Not Active | Not Active | Not Active | Not Active | – | – |
| Nc1nc(N)c2nc(CNc3ccc(C(=O)N[C@@H](CCC(=O)O)C(=O)O)cc3)cnc2n1 [AMINOPTERIN] | Not Active | Not Active | Not Active | Not Active | Not Active | Not Active | Not Active | Not Active | – | – |
| CC(=O)Nc1ccc2c(c1)Cc1ccccc1-2 [2-ACETYLAMINOFLUORENE] | Not Active | Not Active | Not Active | Not Active | Not Active | Not Active | Not Active | Not Active | – | – |
| C=C(Cl)Cl [1,1-DICHLOROETHENE] | Not Active | Not Active | Not Active | Not Active | Not Active | Not Active | Not Active | Not Active | – | – |
| C#C[C@]1(O)CC[C@H]2[C@@H]3CCC4=CC(=O)CC[C@@H]4[C@H]3CC[C@@]21C [NORETHINDRONE] | Not Active | Not Active | Not Active | Not Active | Not Active | Not Active | – | Not Active | 9.34 | 1.22 |
| CC[C@H]1OC(=O)[C@H](C)[C@@H](O[C@H]2C[C@@](C)(OC)[C@@H](O)[C@H](C)O2)[C@H](C)[C@@H](O[C@@H]2O[C@H](C)C[C@H](N(C)C)[C@H]2O)[C@](C)(O)C[C@@H](C)C(=O)[C@H](C)[C@@H](O)[C@]1(C)O [ERYTHROMYCIN] | Not Active | Not Active | Not Active | Not Active | Not Active | Not Active | Not Active | Not Active | – | – |
| c1ccc2c(c1)Nc1ccccc1S2 [PHENOTHIAZINE] | Not Active | Not Active | Not Active | Not Active | Not Active | Not Active | Not Active | Not Active | – | – |
| C[C@H](C(=O)O)c1ccc2oc(-c3ccc(F)cc3)nc2c1 [FLUNOXAPROFEN] | Not Active | Not Active | Not Active | Not Active | Not Active | Not Active | Not Active | Not Active | – | – |
| C=CCN1CC[C@]23c4c5ccc(O)c4O[C@H]2/C(=N/N=C2\CC[C@@]4(O)[C@H]6Cc7ccc(O)c8c7[C@@]4(CCN6CC=C)[C@H]2O8)CC[C@@]3(O)[C@H]1C5 [NALOXONAZINE] | Not Active | Not Active | Not Active | Not Active | Not Active | Not Active | Not Active | Not Active | – | – |
| C[N+](C)(C)CCOP(=O)([O-])OC[C@H](O)CO | Not Active | Not Active | Not Active | Not Active | Not Active | Not Active | Not Active | Not Active | – | – |
| CCC1(c2ccccc2)C(=O)NC(=O)NC1=O [PHENOBARBITAL] | Not Active | Not Active | Not Active | Not Active | Not Active | Not Active | Not Active | Not Active | – | – |
| O=C(O)COC(=O)Cc1ccccc1Nc1c(Cl)cccc1Cl [ACECLOFENAC] | Not Active | Not Active | Not Active | Not Active | Not Active | Not Active | Not Active | Not Active | – | – |
